Laboratory results published in patent US9169254B2, “Spiroimidazolone derivative” (Chugai Seiyaku Kabushiki Kaisha, priority 2009, dated 2015).

Target: T1, human PTH1 receptor (Homo sapiens, UniProt Q03431)
T1 sequence (Q03431 27-593): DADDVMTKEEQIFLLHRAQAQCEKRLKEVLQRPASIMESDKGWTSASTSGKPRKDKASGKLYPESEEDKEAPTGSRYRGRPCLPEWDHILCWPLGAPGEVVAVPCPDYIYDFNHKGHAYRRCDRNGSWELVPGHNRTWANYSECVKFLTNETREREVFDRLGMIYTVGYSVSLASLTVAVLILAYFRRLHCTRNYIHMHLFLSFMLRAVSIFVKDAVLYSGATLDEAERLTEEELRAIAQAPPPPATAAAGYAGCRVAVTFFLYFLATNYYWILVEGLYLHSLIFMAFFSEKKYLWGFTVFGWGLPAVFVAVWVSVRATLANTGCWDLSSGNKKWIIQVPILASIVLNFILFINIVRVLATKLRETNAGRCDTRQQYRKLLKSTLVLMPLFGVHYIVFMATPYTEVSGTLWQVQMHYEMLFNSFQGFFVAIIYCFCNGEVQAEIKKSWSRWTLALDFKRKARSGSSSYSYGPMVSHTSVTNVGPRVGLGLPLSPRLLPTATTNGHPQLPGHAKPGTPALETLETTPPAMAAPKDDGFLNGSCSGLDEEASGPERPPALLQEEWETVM
Assay: In vitro cAMP signal activity in HKRK-B7 cells (LLC-PK1 cells overexpressing the human PTH1 receptor)
Assay type: cell-based
Conditions: HKRK-B7 cells; compound at 1×10^−3 M; cAMP produced as percentage of that produced by hPTH(1-34) at 100 nM

| SMILES | cAMP production activity (%) |
| --- | --- |
| Cc1cc(N2C(=O)CC[C@H]2CO)ccc1/C=C/S(=O)(=O)N1CCC2(CC1)N=C(c1ccc(F)c(C(F)(F)F)c1)NC2=O [Compound 621, 2-(4-fluoro-3-trifluoromethyl-phenyl)-8-{(E)-2-[4-((S)-2-hydroxymethyl-5-oxo-pyrrolidin-1-yl)-2-methyl-phenyl]-ethenesulfonyl}-1,3,8-triaza-spiro[4.5]dec-1-en-4-one] | 80 |
| O=C1NC(CCCCCCCCC(F)(F)F)=NC12CCN(S(=O)(=O)/C=C/c1cccc3c1ccn3C[C@H](O)CO)CC2 [Compound 622, 8-{(E)-2-[1-((S)-2,3-Dihydroxy-propyl)-1H-indol-4-yl]-ethenesulfonyl}-2-(9,9,9-trifluoro-nonyl)-1,3,8-triaza-spiro[4.5]dec-1-en-4-one] | 134 |
| O=C1NC(CCCCCCCC(F)(F)C(F)(F)F)=NC12CCN(S(=O)(=O)/C=C/c1cccc3c1ccn3C[C@H](O)CO)CC2 [Compound 623, 8-{(E)-2-[1-((S)-2,3-Dihydroxy-propyl)-1H-indol-4-yl]-ethenesulfonyl}-2-(8,8,9,9,9-pentafluoro-nonyl)-1,3,8-triaza-spiro[4.5]dec-1-en-4-one] | 123 |
| CC[C@H]1CC[C@H](C2=NC3(CCN(S(=O)(=O)/C=C/c4ccc(N5CC(=O)NC5=O)cc4C)CC3)C(=O)N2)CC1 [Compound 624, 1-(4-{(E)-2-[2-(4-Ethyl-cyclohexyl)-4-oxo-1,3,8-triaza-spiro[4.5]dec-1-ene-8-sulfonyl]-vinyl}-3-methyl-phenyl)-imidazolidine-2,4-dione] | 36 |
| CC[C@H]1CC[C@H](C2=NC3(CCN(S(=O)(=O)/C=C/c4ccc(N5C(=O)NC(=O)C5C)cc4C)CC3)C(=O)N2)CC1 (stereo partly shown) [Compound 625, 1-(4-{(E)-2-[2-(4-ethyl-cyclohexyl)-4-oxo-1,3,8-triaza-spiro[4.5]dec-1-ene-8-sulfonyl]-vinyl}-3-methyl-phenyl)-5-methyl-imidazolidine-2,4-dione] | 47 |
| CC[C@H]1CC[C@H](C2=NC3(CCN(S(=O)(=O)/C=C/c4ccc(N5C(=O)NC(=O)C5(C)C)cc4C)CC3)C(=O)N2)CC1 [Compound 626, 1-(4-{(E)-2-[2-(4-ethyl-cyclohexyl)-4-oxo-1,3,8-triaza-spiro[4.5]dec-1-ene-8-sulfonyl]-vinyl}-3-methyl-phenyl)-5,5-dimethyl-imidazolidine-2,4-dione] | 53 |
| CCCCCCCCCC1=NC2(CCN(S(=O)(=O)/C=C/c3c(C)cc(OCCC(O)CO)cc3C)CC2)C(=O)N1 (stereo not shown) [Compound 627, 8-{(E)-2-[4-(3,4-Dihydroxy-butoxy)-2,6-dimethyl-phenyl]-ethenesulfonyl}-2-nonyl-1,3,8-triaza-spiro[4.5]dec-1-en-4-one] | 5.3 |
| CCCCCCCCCC1=NC2(CCN(S(=O)(=O)/C=C/c3c(C)cc(C(=O)O)cc3C)CC2)C(=O)N1 [Compound 628, 3,5-dimethyl-4-[(E)-2-(2-nonyl-4-oxo-1,3,8-triaza-spiro[4.5]dec-1-ene-8-sulfonyl)-vinyl]-benzoic acid] | 48 |
| Cc1cc(C(=O)N(C)N(C)C)cc(C)c1/C=C/S(=O)(=O)N1CCC2(CC1)N=C(C1CCC(CCC(F)(F)F)CC1)NC2=O (stereo not shown) [Compound 629, 3,5-Dimethyl-4-((E)-2-{4-oxo-2-[4-(3,3,3-trifluoro-propyl)-cyclohexyl]-1,3,8-triaza-spiro[4.5]dec-1-ene-8-sulfonyl}-vinyl)-benzoic acid trimethylhydrazide] | 87 |
| Cc1cc2c(ccn2C[C@@H](O)CO)c(C)c1/C=C/S(=O)(=O)N1CCC2(CC1)N=C(C1CCC(CCC(F)(F)F)CC1)NC2=O (stereo partly drawn) [Compound 630, 8-{(E)-2-[1-((R)-2,3-dihydroxy-propyl)-4,6-dimethyl-1H-indol-5-yl]-ethenesulfonyl}-2-[4-(3,3,3-trifluoro-propyl)-cyclohexyl]-1,3,8-triaza-spiro[4.5]dec-1-en-4-one] | 4.1 |
| CCCCC1CCC(C2=NC3(CCN(S(=O)(=O)/C=C/c4c(C)cc(N5C(=O)CNC5=O)cc4C)CC3)C(=O)N2)CC1 (stereo not shown) [Compound 631, 3-(4-{(E)-2-[2-(4-Butyl-cyclohexyl)-4-oxo-1,3,8-triaza-spiro[4.5]dec-1-ene-8-sulfonyl]-vinyl}-3,5-dimethyl-phenyl)-imidazolidine-2,4-dione] | 65 |
| CCCC[C@H]1CC[C@H](C2=NC3(CCN(S(=O)(=O)/C=C/c4c(C)cc(N(CC5(C)COC5)C(C)=O)cc4C)CC3)C(=O)N2)CC1 [Compound 632, N-(4-{(E)-2-[2-(4-butyl-cyclohexyl)-4-oxo-1,3,8-triaza-spiro[4.5]dec-1-ene-8-sulfonyl]-vinyl}-3,5-dimethyl-phenyl)-N-(3-methyl-oxetan-3-ylmethyl)-acetamide] | 51 |
| O=C1NC(C2CCCCC2)=NC12CCN(S(=O)(=O)/C=C/c1cccc3cccnc13)CC2 [Compound 633, 2-Cyclohexyl-8-((E)-2-quinolin-8-yl-ethenesulfonyl)-1,3,8-triaza-spiro[4.5]dec-1-en-4-one] | 37 |
| O=C1Cc2c(/C=C/S(=O)(=O)N3CCC4(CC3)N=C(C3CCCCC3)NC4=O)cccc2N1 [Compound 634, 2-cyclohexyl-8-[(E)-2-(2-oxo-2,3-dihydro-1H-indol-4-yl)-ethenesulfonyl]-1,3,8-triaza-spiro[4.5]dec-1-en-4-one] | 29 |
| Cc1cc(N2C(=O)CNC2=O)cc(C)c1/C=C/S(=O)(=O)N1CCC2(CC1)N=C(c1cccc(OC(F)(F)F)c1)NC2=O [Compound 635, 3-(3,5-Dimethyl-4-{(E)-2-[4-oxo-2-(3-trifluoromethoxy-phenyl)-1,3,8-triaza-spiro[4.5]dec-1-ene-8-sulfonyl]-vinyl}-phenyl)-imidazolidine-2,4-dione] | 93 |
| Cc1cc(N2C(=O)CNC2=O)cc(C)c1/C=C/S(=O)(=O)N1CCC2(CC1)N=C(c1ccc(F)c(C(F)(F)F)c1)NC2=O [Compound 636, 3-(4-{(E)-2-[2-(4-Fluoro-3-trifluoromethyl-phenyl)-4-oxo-1,3,8-triaza-spiro[4.5]dec-1-ene-8-sulfonyl]-vinyl}-3,5-dimethyl-phenyl)-imidazolidine-2,4-dione] | 88 |
| Cc1cc2c(/C=C/S(=O)(=O)N3CCC4(CC3)N=C(C3CCCCC3)NC4=O)cccc2[nH]1 [Compound 637, 2-Cyclohexyl-8-[(E)-2-(2-methyl-1H-indol-4-yl)-ethenesulfonyl]-1,3,8-triaza-spiro[4.5]dec-1-en-4-one] | 38 |
| CN1CCCc2c(/C=C/S(=O)(=O)N3CCC4(CC3)N=C(C3CCCCC3)NC4=O)cccc21 [Compound 638, 2-cyclohexyl-8-[(E)-2-(1-methyl-1,2,3,4-tetrahydro-quinolin-5-yl)-ethenesulfonyl]-1,3,8-triaza-spiro[4.5]dec-1-en-4-one] | 46 |
| Cc1cc(OCCC(O)CO)cc(C)c1/C=C/S(=O)(=O)N1CCC2(CC1)N=C(c1ccc(F)c(C(F)(F)F)c1)NC2=O (stereo not shown) [Compound 639, 8-{(E)-2-[4-(3,4-Dihydroxy-butoxy)-2,6-dimethyl-phenyl]-ethenesulfonyl}-2-(4-fluoro-3-trifluoromethyl-phenyl)-1,3,8-triaza-spiro[4.5]dec-1-en-4-one] | 101 |
